For twelve compounds, logP results are on record in the SangsterLogP compilation.

A word on the logP: it is a log measure of how a compound divides between an organic and an aqueous phase. Turning to `CC(Cl)CCC(Cl)C(Cl)CCC(C)Cl` (configuration not stated), the logP stood at 4.4.
Under `ClCC(Cl)CCC(Cl)C(Cl)(Cl)CCC(Cl)CCl` (configuration not stated) stands 4.2; under `ClC(CCCCC(Cl)CC(Cl)(Cl)Cl)CC(Cl)(Cl)Cl` (configuration not stated), 6.71; under `ClCC(Cl)CCCCCCC(Cl)CC(Cl)(Cl)Cl` (configuration not stated), 6.42.
With `ClC(CCC(Cl)C(Cl)CCC(Cl)CC(Cl)(Cl)Cl)CC(Cl)(Cl)Cl` (configuration not stated), the logP amounted to 6.72.
For the compound `CC(Cl)CCC(Cl)C(Cl)CCC(Cl)CCl` (configuration not stated), the log partition coefficient (logP) was 4.19.
As for `ClC(CCCCCCC(Cl)CC(Cl)(Cl)Cl)CC(Cl)(Cl)Cl` (configuration not stated), the figure is 7.75; as for `CCCCC(Cl)C(Cl)CCC(Cl)CCl` (configuration not stated), 4.93; as for `ClC(CCCCCC(Cl)CC(Cl)(Cl)Cl)CC(Cl)(Cl)Cl` (configuration not stated), 7.23.
Regarding `ClCC(Cl)CCC(Cl)C(Cl)CCC(Cl)CCl` (configuration not stated), the logP is 4.02.
Under `ClCC(Cl)CCC(Cl)C(Cl)CCC(Cl)CC(Cl)(Cl)Cl` (configuration not stated) stands 5.4; under `ClCC(Cl)CCCCCCC(Cl)CCl` (configuration not stated), 5.01.
